Measurements taken from ChEMBL document CHEMBL4699557, “Structure activity relationship of novel antiviral nucleosides against Enterovirus A71” (Bioorg Med Chem Lett, 2020).

How the values were obtained:
Enterovirus A71 [1] = experiment: microbe, parasite or virus in culture; format: functional, organism-based; settings: Enterovirus A, Tainin/4643/98, Vero 76, 72 h
Vero 76 [2] = experiment: Cytotoxicity against monkey Vero 76 cells by microscopic analysis; format: cell-based; settings: chlorocebus sabaeus, vero 76
Vero 76 [3] = experiment: Cytotoxicity against monkey Vero 76 cells by neutral red uptake assay; format: cell-based; settings: chlorocebus sabaeus, vero 76
Enterovirus A71 [4] = experiment: microbe, parasite or virus in culture; format: functional, organism-based, Tainin/4643/98, Vero 76; settings: Enterovirus A, Tainin/4643/98, Vero 76, 72 h
in vitro [5] = settings: monkey, Vero 76 cells
in vitro [6] = settings: monkey, Vero 76 cells; remark: listed apart in the source

Row | SMILES | EC50 (Enterovirus A71 [1]) | CC50 (Vero 76 [2]) | CC50 (Vero 76 [3]) | EC50 (Enterovirus A71 [4]) | selectivity ratio (in vitro [5]) | selectivity ratio (in vitro [6])
1 | OC[C@H]1O[C@@H](n2cnc3c(NC(C4CC4)C4CC4)ncnc32)[C@H](O)[C@@H]1O | > 50 µM | > 50 µM | > 50 µM | > 50 µM | – | –
2 | NCCCNC(=O)[C@@]12C[C@@H]1[C@@H](n1cnc3c(NC(C4CC4)C4CC4)nc(Cl)nc31)[C@H](O)[C@@H]2O | > 50 µM | > 50 µM | 50 µM | > 50 µM | – | –
3 | NNc1nc(NC(C2CC2)C2CC2)c2ncn([C@H]3[C@H](O)[C@H](O)[C@@H]4C[C@@H]43)c2n1 | > 50 µM | > 50 µM | 50 µM | > 50 µM | – | –
4 | CSc1nc(N[C@@H](C2CC2)C(C)(C)O)c2ccn([C@H]3[C@H](O)[C@H](O)[C@]4(CO)C[C@H]34)c2n1 | > 100 µM | > 100 µM | > 100 µM | > 100 µM | – | –
5 | OC[C@H]1O[C@@H](n2cnc3c(NC(C4CCC4)C4CCC4)ncnc32)[C@H](O)[C@@H]1O | > 100 µM | > 100 µM | > 100 µM | > 100 µM | – | –
6 | CCOC(=O)[C@@]12C[C@@H]1[C@@H](n1cnc3c(NC(C4CC4)C4CC4)nc(Cl)nc31)[C@H](O)[C@@H]2O | > 1.5 µM | > 50 µM | 1.5 µM | > 50 µM | – | –
7 | OC[C@@]12C[C@@H]1[C@@H](n1cnc3c(NC(C4CCC4)C4CCC4)nc(Cl)nc31)[C@H](O)[C@@H]2O | > 28 µM | 50 µM | 28 µM | 16 µM | 3.1 | –
8 | O[C@@H]1[C@H](O)[C@@H]2C[C@@H]2[C@H]1n1cnc2c(NC(C3CCC3)C3CCC3)nc(Cl)nc21 | > 17 µM | 16 µM | 17 µM | – | – | –
9 | CC(C)(O)[C@@H](Nc1nc(Cl)nc2c1ccn2[C@H]1[C@H](O)[C@H](O)[C@]2(CO)C[C@H]12)C1CC1 | > 63 µM | > 100 µM | 63 µM | > 100 µM | – | –
10 | O[C@@H]1[C@H](O)[C@@H]2C[C@@H]2[C@H]1n1cnc2c(N[C@@H](CC3CC3)C3CC3)nc(Cl)nc21 | > 7.6 µM | > 50 µM | 7.6 µM | 18 µM | > 2.8 | –
11 | CC(C)C(Nc1nc(Cl)nc2c1ncn2[C@H]1[C@H](O)[C@H](O)[C@]2(CO)C[C@H]12)C(C)C | 32 µM | > 100 µM | > 100 µM | 32 µM | – | –
12 | O[C@@H]1[C@H](O)[C@@H]2C[C@@H]2[C@H]1n1cnc2c(NCC(C3CC3)C3CC3)nc(Cl)nc21 | > 10 µM | > 50 µM | 10 µM | > 50 µM | – | –
13 | CSc1nc(N[C@H](C(C)C)C2CC2)c2ncn([C@H]3[C@H](O)[C@H](O)[C@]4(CO)C[C@H]34)c2n1 | 66 µM | > 100 µM | > 100 µM | – | – | > 1.5
14 | O[C@@H]1[C@H](O)[C@@H]2C[C@@H]2[C@H]1n1cnc2c(NC(C3CC3)C3CC3)ncnc21 | > 50 µM | > 50 µM | > 50 µM | > 50 µM | – | –
15 | O=C(O)c1cnn(-c2nc(NC(C3CC3)C3CC3)c3ncn([C@H]4[C@H](O)[C@H](O)[C@@H]5C[C@@H]54)c3n2)c1 | > 50 µM | > 50 µM | 50 µM | > 50 µM | – | –
16 | O[C@@H]1[C@H](O)[C@@H]2C[C@@H]2[C@H]1n1ccc2c(NC(C3CC3)C3CC3)nc(I)nc21 | 32 µM | 100 µM | 44 µM | > 100 µM | – | 1.4
17 | OC[C@@]12C[C@@H]1[C@@H](n1cnc3c(N[C@@H](C4CCC4)C4CC4)nc(Cl)nc31)[C@H](O)[C@@H]2O | 8 µM | – | 13 µM | 16 µM | > 3.1 | 1.6
18 | OC[C@@]12C[C@@H]1[C@@H](n1cnc3c(N[C@H](C4CCC4)C4CC4)nc(Cl)nc31)[C@H](O)[C@@H]2O | 9.3 µM | > 50 µM | 14 µM | 16 µM | > 3.1 | 1.5
19 | O[C@@H]1[C@H](O)[C@@H]2C[C@@H]2[C@H]1n1cnc2c(NCc3ccccc3F)nc(Cl)nc21 | > 23 µM | > 50 µM | 23 µM | > 50 µM | – | –
20 | OC[C@@]12C[C@@H]1[C@@H](n1cnc3c(NCc4ccccc4)nc(Cl)nc31)[C@H](O)[C@@H]2O | > 100 µM | > 100 µM | > 100 µM | > 100 µM | – | –

Row | SMILES | EC50 (Enterovirus A71 [1]) | CC50 (Vero 76 [2]) | CC50 (Vero 76 [3]) | EC50 (Enterovirus A71 [4]) | selectivity ratio (in vitro [5]) | selectivity ratio (in vitro [6])
21 | CC(C)[C@@H](Nc1nc(Cl)nc2c1ncn2[C@H]1[C@H](O)[C@H](O)[C@]2(CN=[N+]=[N-])C[C@H]12)C1CC1 | 4.8 µM | 32 µM | 32 µM | 5.3 µM | 6 | 6.7
22 | CC(C)[C@H](Nc1nc(Cl)nc2c1ncn2[C@H]1[C@H](O)[C@H](O)[C@]2(CO)C[C@H]12)C1CC1 | 2.3 µM | > 50 µM | > 50 µM | 12 µM | – | –
23 | CC[C@@H](Nc1nc(SC)nc2c1ccn2[C@H]1[C@H](O)[C@H](O)[C@]2(CO)C[C@H]12)C1CC1 | 2.3 µM | > 50 µM | > 50 µM | – | > 3.1 | > 22
24 | CCOC(=O)c1ccc(OCCC2CCN(c3ccc(C)nn3)CC2)cc1 [PIRODAVIR] | 0.57 µM | > 27 µM | 17 µM | 0.86 µM | > 31 | 30
25 | CC(C)[C@@H](Nc1nc(Cl)nc2c1ncn2[C@H]1[C@H](O)[C@H](O)[C@]2(CN)C[C@H]12)C1CC1 | > 32 µM | 32 µM | 32 µM | > 32 µM | – | –
26 | CC(C)(C)[C@H](Nc1nc(Cl)nc2c1ncn2[C@H]1[C@H](O)[C@H](O)[C@]2(CO)C[C@H]12)C1CC1 | 31 µM | > 100 µM | > 100 µM | 32 µM | – | –
27 | O[C@@H]1[C@H](O)[C@@H]2C[C@@H]2[C@H]1n1cnc2c(N[C@H](CC3CC3)C3CC3)nc(Cl)nc21 | 8.1 µM | – | 9.9 µM | 21 µM | > 2.4 | 1.2
28 | NCCNC(=O)[C@@]12C[C@@H]1[C@@H](n1cnc3c(NC(C4CC4)C4CC4)nc(Cl)nc31)[C@H](O)[C@@H]2O | > 50 µM | > 50 µM | 50 µM | > 50 µM | – | –
29 | CC[C@H](Nc1nc(Cl)nc2c1ncn2[C@H]1[C@H](O)[C@H](O)[C@]2(CO)C[C@H]12)C1CC1 | 5.3 µM | > 50 µM | > 50 µM | – | > 3.1 | > 9.4
30 | Nc1nc(Cl)nc2c1ncn2[C@H]1[C@H](O)[C@H](O)[C@]2(CO)C[C@H]12 | > 36 µM | > 50 µM | 36 µM | > 50 µM | – | –
31 | COC(=O)c1cnn(-c2nc(NC(C3CC3)C3CC3)c3ncn([C@H]4[C@H](O)[C@H](O)[C@@H]5C[C@@H]54)c3n2)c1 | > 50 µM | > 50 µM | 50 µM | > 50 µM | – | –
32 | O=C(O)[C@@]12C[C@@H]1[C@@H](n1cnc3c(NC(C4CC4)C4CC4)nc(Cl)nc31)[C@H](O)[C@@H]2O | > 50 µM | > 50 µM | 50 µM | > 50 µM | – | –
33 | CC(C)[C@@H](Nc1nc(Cl)nc2c1ncn2[C@H]1[C@H](O)[C@H](O)[C@]2(CCl)C[C@H]12)C1CC1 | 3.9 µM | 32 µM | 27 µM | 4.3 µM | 7.4 | 6.9
34 | CC(C)(O)[C@@H](Nc1nc(Cl)nc2c1ncn2[C@H]1[C@H](O)[C@H](O)[C@]2(CO)C[C@H]12)C1CC1 | > 100 µM | > 100 µM | > 100 µM | > 100 µM | – | –
35 | NC(=O)c1ncn([C@H]2[C@H](O)[C@H](O)[C@]3(CO)C[C@H]23)n1 | > 50 µM | > 50 µM | > 50 µM | > 50 µM | – | –
36 | CC(C)[C@@H](Nc1nc(Cl)nc2c1ncn2[C@H]1[C@H](O)[C@H](O)[C@@H]2C[C@@H]21)C1CC1 | 12 µM | > 50 µM | > 50 µM | 16 µM | > 3.1 | > 4.2
37 | OC[C@H]1O[C@@H](n2cnc3c(NC(C4CCC4)C4CCC4)nc(Cl)nc32)[C@H](O)[C@@H]1O | > 27 µM | 32 µM | 27 µM | > 32 µM | – | –
38 | CSC[C@@]12C[C@@H]1[C@@H](n1cnc3c(N[C@H](C(C)C)C4CC4)nc(Cl)nc31)[C@H](O)[C@@H]2O | 8.4 µM | 32 µM | 32 µM | > 32 µM | – | 3.8
39 | O[C@@H]1[C@H](O)[C@@H]2C[C@@H]2[C@H]1n1cnc2c(NC(C3CC3)C3CC3)nc(I)nc21 | > 50 µM | > 50 µM | 50 µM | > 50 µM | – | –
